Data from patent US12116343B2, “Inhibitors of APOL1 and methods of using same” (Vertex Pharmaceuticals Incorporated, priority 2020, dated 2024).
Where two headings read alike, the source gives them in different places.

Biological target: T1, G1 APOL1 (Homo sapiens, UniProt O14791, I384M/S342G)
T1 construct: expressed in transfected cells
T1 sequence (O14791 28-398 S342G/I384M): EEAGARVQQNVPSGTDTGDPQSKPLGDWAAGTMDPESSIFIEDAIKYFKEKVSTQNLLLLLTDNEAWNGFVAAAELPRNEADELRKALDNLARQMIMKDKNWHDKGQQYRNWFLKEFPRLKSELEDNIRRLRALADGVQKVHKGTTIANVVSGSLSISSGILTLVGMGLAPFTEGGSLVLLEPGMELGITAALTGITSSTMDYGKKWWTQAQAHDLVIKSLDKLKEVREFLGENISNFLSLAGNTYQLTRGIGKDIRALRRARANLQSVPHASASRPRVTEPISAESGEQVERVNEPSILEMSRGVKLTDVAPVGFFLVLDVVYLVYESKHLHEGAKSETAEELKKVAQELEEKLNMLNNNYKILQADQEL
Assay: Acute APOL1 Thallium Assay with inducible stable clones of HEK 293 cells
Format: cell-based
Details: read-out: Thallium Assay (IC50)
From the text: Acute APOL1 Thallium Assay with Inducible Stable Clones of HEK 293 Cells
Apolipoprotein L1 (APOL1) proteins form potassium-permeable cation pores in the plasma membrane. APOL1 risk variants (G1 and G2) induce greater potassium flux than G0 in HEK293 cells. This assay exploits the permeability of thallium (Tl+) through ligand-gated potassium channels. The dye produces a bright fluorescent signal upon binding to Tl+ conducted through potassium channels. The intensity of the Tl+ signal is proportional to the number of potassium channels in the open state. Therefore, it provides a functional indication of the potassium channel activities. During the initial dye-loading step, the Tl+ indicator dye as an acetoxymethyl (AM) ester enters the cells through passive diffusion. Cytoplasm esterases cleave the AM ester and relieve its active thallium-sensitive form. The cells are then stimulated with Tl+. The increase of fluorescence in the assay represents the influx of Tl+ into the cell specifically through the potassium channel (i.e. through APOL1 pores), providing a functional measurement of potassium channel/pore activity. The Thallium assay is conducted with cells expressing G1 APOL1.
APOL1 Cell Line (HEK T-Rex Stable Inducible Cell Line) • HEK T-Rex System • Tetracycline (Tet) inducible mammalian expression system. • Stably express the Tet repressor to regulate transcription. • Expression under the full-length CMV promoter. • APOL1 stable inducible cell line Clone used: G1 DC3.25
Tissue Culture Media • Cell Culture Medium • DMEM+10% FBS+P/S+5 μg/mL blasticidin+1 μg/mL puromycin. • 500 mL DMEM+55 mL FBS+5 mL P/S+280 μL blasticidin S HCl (10 mg/mL)+56 μL puromycin (10 mg/mL). • Cell Assay Medium • DMEM with 2% FBS+pen strep.
Instruments and Equipment • Nuaire cell culture hood, Cat. No. 540-600 • 37° C./5% CO2 incubator link to robotic arm, Liconic: STX110 • Molecular Devices FLIPR^Tetra High throughput cellular screening system, Cat. No. FT0324, Molecular Devices • ThermoFisher MultiDrop 384, Cat. No. 5840300 • Biotek Microfill, Cat. No. ASF1000A-4145 • BioRad TC10 cell counter, Cat. No. 145-0010 Assay Procedures
Cells Scaled Up from Frozen Vials • APOL1 G1 3.25 (HEK293 T-Rex) frozen vials: 5 million cells per vial • Step 1, Day 1: Defrost frozen vial into T-225. • Step 2, Day 5: (when 85% confluent): Split one T-225 at 3×10^6 cells per flask. • Step 3, Day 8: Splits cells to set up for the assay plates as described below.
T-Rex APOL1 HEK cells are split twice per week to keep the confluence state below 85% of the culture flask surface area. Cells can be kept until passage 25. • Cell Culture Medium • DMEM high glucose+10% FBS, +P/S, +5 μg/mL blasticidin, +1 μg/mL puromycin. • 500 mL DMEM, +55 mL FBS, +5 mL P/S, +280 μL blasicidin 10 mg/mL, +56 μL Puromycin 10 mg/mL. • Assay Media • Opti-MEM reduced serum medium from Invitrogen.
Preparation of Cell Assay Plates • Culture medium is removed from the x cm^2 T-flask by aspiration. • The cell monolayer is rinsed with PBS 1× at room temperature. PBS is removed by aspiration. • Cells are trypsinized using Trypsin. • The flasks are incubated at room temperature for 2-3 minutes. • Complete DMEM medium is then added. Cell suspension is then transferred to a 50 mL Falcon polypropylene tube. • Cells are then counted using a Biorad TC10 cell counter and the required amount of cells are centrifuged at 1200 RPM for 5 minutes. Required amount is 1.3×10^6 cells/mL APOL1 T-Rex HEK cells. • The pellet is suspended in the assay medium. • Using the MultiDrop, add 20 μL to each well (corresponds to 26000 cells total per well) of a 384-well black, transparent, flat bottom Poly-D coated plate. • Tetracycline as prepared in the following section is added to the cells before plating to induce APOL1 expression. • Plates are left at room temperature for 20 to 30 minutes before incubation at 37° C. and 5% CO2. […]

[1] = HEK 293 T-Rex cells expressing G1 APOL1

Row | IC50 [1] | IC50 (Table 24, Compounds 287 to 465) | Compound
1 | 0.25 to 1 µM | – | O=C(NC1(CO)CCC1)[C@H]1C[C@@H](c2c(-c3ccc(F)cc3)[nH]c3c(F)cc(F)cc32)C1 [Compound 240]
2 | > 1 µM | – | O=C(CNC(=O)[C@H]1C[C@H](c2c(-c3ccc(F)cc3)[nH]c3c(F)cc(F)cc32)C1)NC[C@@H](O)C(F)(F)F [Compound 233]
3 | – | > 1 µM | O=C(CC1CC(c2c(-c3ccc(F)cc3)[nH]c3c(F)cc(F)cc23)C1)N[C@@H](CO)C(F)(F)F (stereo partly shown) [Compound 462]
4 | – | > 1 µM | CNC(=O)N(C)CC1CC(c2c(-c3ccc(F)cc3)[nH]c3c(F)cc(F)cc23)C1 (stereo not shown) [Compound 428]
5 | 0.25 to 1 µM | – | C[C@@H](CO)NC(=O)[C@H]1C[C@@H](c2c(-c3ccc(F)cc3)[nH]c3c(F)cc(F)cc32)C1 [Compound 271]
6 | > 1 µM | – | CC(CO)NC(=O)[C@H]1C[C@@H](c2c(-c3ccc(F)cc3)[nH]c3c(F)cc(F)cc32)C1 (mixture of isomers) [Compound 243]
7 | – | > 1 µM | O=C1CC(CNC(=O)C2CC(Cc3c(-c4ccc(F)cc4)[nH]c4c(F)cc(F)cc34)C2)CN1 (stereo not shown) [Compound 336]
8 | – | > 1 µM | Cc1ccc(CNC(=O)O[C@H]2C[C@H](c3c(-c4ccc(F)cc4)[nH]c4c(F)cc(F)cc43)C2)o1 [Compound 375]
9 | – | > 1 µM | N#CC(CO)NC(=O)C1CC(Cc2c(-c3ccc(F)cc3)[nH]c3c(F)cc(F)cc23)C1 (stereo not shown) [Compound 303]
10 | – | > 1 µM | O=C(NCc1ncc[nH]1)O[C@H]1C[C@H](c2c(-c3ccc(F)cc3)[nH]c3c(F)cc(F)cc32)C1 [Compound 373]
11 | – | > 1 µM | CC(NC(=O)C1CC(Cc2c(-c3ccc(F)cc3)[nH]c3c(F)cc(F)cc23)C1)C1CCOC1 (mixture of isomers) [Compound 345]
12 | – | 0.25 to 1 µM | CNC(=O)CN[C@H]1C[C@H](c2c(-c3ccc(F)cc3)[nH]c3c(F)cc(F)cc32)C1 [Compound 291]
13 | – | > 1 µM | CC[C@H](CO)NC(=O)NC[C@H]1C[C@H](c2c(-c3ccc(F)cc3)[nH]c3c(F)cc(F)cc32)C1 [Compound 418]
14 | – | > 1 µM | O=C(NC[C@H]1C[C@H](c2c(-c3ccc(F)cc3)[nH]c3c(F)cc(F)cc32)C1)NC1(CO)CC(F)(F)C1 [Compound 400]
15 | – | > 1 µM | Cc1c(CNC(=O)C2CC(Cc3c(-c4ccc(F)cc4)[nH]c4c(F)cc(F)cc34)C2)cnn1C (stereo not shown) [Compound 333]
16 | > 1 µM | – | O=C(N[C@@H]1CCOC1)[C@H]1C[C@@H](c2c(-c3ccc(F)cc3)[nH]c3c(F)cc(F)cc32)C1 [Compound 269]
17 | – | > 1 µM | O=C(N[C@H]1CCOC1)O[C@H]1C[C@H](c2c(-c3ccc(F)cc3)[nH]c3c(F)cc(F)cc32)C1 [Compound 381]
18 | – | > 1 µM | COC[C@H](C)NC(=O)O[C@H]1C[C@H](c2c(-c3ccc(F)cc3)[nH]c3c(F)cc(F)cc32)C1 [Compound 364]
19 | – | > 1 µM | O=C(CC1CC(c2c(-c3ccc(F)cc3)[nH]c3c(F)cc(F)cc23)C1)NC1(CO)CCC1 (stereo not shown) [Compound 452, 2-[3-[5,7-difluoro-2-(4-fluorophenyl)-1H-indol-3-yl]cyclobutyl]-N-[1-(hydroxymethyl)cyclobutyl]acetamide]
20 | – | 0.25 to 1 µM | O=C(NC1CC1)O[C@H]1C[C@H](c2c(-c3ccc(F)cc3)[nH]c3c(F)cc(F)cc32)C1 [Compound 358]
21 | – | > 1 µM | CC(C)(C)[C@H](CO)NC(=O)NC[C@H]1C[C@H](c2c(-c3ccc(F)cc3)[nH]c3c(F)cc(F)cc32)C1 [Compound 416]
22 | – | > 1 µM | CN1CCN(C(=O)CNCC2CC(c3c(-c4ccc(F)cc4)[nH]c4c(F)cc(F)cc34)C2)CC1 (stereo not shown) [Compound 444]

Row | IC50 [1] | IC50 (Table 24, Compounds 287 to 465) | Compound
23 | – | 0.25 to 1 µM | O=C(NCCO)O[C@H]1C[C@H](c2c(-c3ccc(F)cc3)[nH]c3c(F)cc(F)cc32)C1 [Compound 350]
24 | – | > 1 µM | O=C(NCc1ncc[nH]1)C1CC(Cc2c(-c3ccc(F)cc3)[nH]c3c(F)cc(F)cc23)C1 (stereo not shown) [Compound 342]
25 | – | 0.25 to 1 µM | CC(CO)NC(=O)O[C@H]1C[C@H](c2c(-c3ccc(F)cc3)[nH]c3c(F)cc(F)cc32)C1 (mixture of isomers) [Compound 356]
26 | – | > 1 µM | C[C@H](CO)NC(=O)C1CCC(c2c(-c3ccc(F)cc3)[nH]c3c(F)cc(F)cc23)C1 (stereo partly drawn) [Compound 463, 3-[5,7-difluoro-2-(4-fluorophenyl)-1H-indol-3-yl]-N-[(1R)-2-hydroxy-1-methyl-ethyl]cyclopentanecarboxamide]
27 | – | > 1 µM | CC(C)C(CO)NC(=O)O[C@H]1C[C@H](c2c(-c3ccc(F)cc3)[nH]c3c(F)cc(F)cc32)C1 (stereo partly shown) [Compound 380]
28 | – | > 1 µM | O=C(NC(CO)CO)N[C@H]1C[C@H](c2c(-c3ccc(F)cc3)[nH]c3c(F)cc(F)cc32)C1 [Compound 298]
29 | – | > 1 µM | O=C(CN[C@H]1C[C@H](c2c(-c3ccc(F)cc3)[nH]c3c(F)cc(F)cc32)C1)NC1CC1 [Compound 293]
30 | – | > 1 µM | O=C(NC[C@H]1C[C@H](c2c(-c3ccc(F)cc3)[nH]c3c(F)cc(F)cc32)C1)N[C@@H](CO)C(F)(F)F [Compound 413]
31 | – | > 1 µM | CS(=O)(=O)CCNC(=O)C1CC(Cc2c(-c3ccc(F)cc3)[nH]c3c(F)cc(F)cc23)C1 (stereo not shown) [Compound 316]
32 | 0.25 to 1 µM | – | O=C(N[C@@H](CO)C(F)F)[C@H]1C[C@@H](c2c(-c3ccc(F)cc3)[nH]c3c(F)cc(F)cc32)C1 [Compound 276]
33 | > 1 µM | – | O=C1NCCC1NC(=O)[C@H]1C[C@@H](c2c(-c3ccc(F)cc3)[nH]c3c(F)cc(F)cc32)C1 (stereo partly shown) [Compound 268]
34 | – | > 1 µM | CC[C@H](NCC1CC(c2c(-c3ccc(F)cc3)[nH]c3c(F)cc(F)cc23)C1)C(=O)NCC(F)(F)F (stereo partly shown) [Compound 443]
35 | – | > 1 µM | O=C(N[C@H]1COC[C@@H]1O)O[C@H]1C[C@H](c2c(-c3ccc(F)cc3)[nH]c3c(F)cc(F)cc32)C1 [Compound 389]
36 | – | > 1 µM | O=C(NCC(O)CO)O[C@H]1C[C@H](c2c(-c3ccc(F)cc3)[nH]c3c(F)cc(F)cc32)C1 (stereo partly shown) [Compound 367]
37 | – | > 1 µM | O=C(NC[C@H]1C[C@H](c2c(-c3ccc(F)cc3)[nH]c3c(F)cc(F)cc32)C1)N[C@H]1C[C@H](O)C1 [Compound 411]
38 | – | > 1 µM | Cn1cnc(CNC(=O)O[C@H]2C[C@H](c3c(-c4ccc(F)cc4)[nH]c4c(F)cc(F)cc43)C2)c1 [Compound 368]
39 | – | > 1 µM | O=C(NCC1(O)COC1)NC[C@H]1C[C@H](c2c(-c3ccc(F)cc3)[nH]c3c(F)cc(F)cc32)C1 [Compound 398]
40 | – | > 1 µM | O=C(Nc1ccc[nH]c1=O)C1CC(Cc2c(-c3ccc(F)cc3)[nH]c3c(F)cc(F)cc23)C1 (stereo not shown) [Compound 339]
41 | – | > 1 µM | CCC(O)CNC(=O)O[C@H]1C[C@H](c2c(-c3ccc(F)cc3)[nH]c3c(F)cc(F)cc32)C1 (stereo partly shown) [Compound 388]
42 | – | > 1 µM | C[C@H](CO)NC(=O)CC1CC(c2c(-c3ccc(F)cc3)[nH]c3c(F)cc(F)cc23)C1 (stereo partly shown) [Compound 454]
43 | – | > 1 µM | O=C(NCc1cocn1)C1CC(Cc2c(-c3ccc(F)cc3)[nH]c3c(F)cc(F)cc23)C1 (stereo not shown) [Compound 341]
